| Compound | melting point [°C] |
| --- | --- |
| COc1cc(C(C)C)ccc1C1COc2c(C)c(C)c(N)c(C)c21 (stereo unspecified) | 120 to 121 |
| COC(=O)c1c(C)cccc1[N+](=O)[O-] | 44 to 45 |
| CCc1ccccc1NS(=O)(=O)c1cc(S(=O)(=O)Nc2ccccc2CC)c2cc(O)ccc2c1 | 127 to 129 |
| CNC(Cc1cc(Cl)ccc1N)c1sccc1C (stereo unspecified) | 59 to 61 |
| COCCc1cc(O)ccc1N | 82 |
| COc1ccc(CCCCNC(=O)C(F)(F)F)cc1S(N)(=O)=O | 145 to 147 |
| COC(=O)C1Cc2cc(OC)ccc2N1 (racemic) | 59 to 61 |
| CCCCOc1ccc(-c2ncc(C(=O)OCC)cn2)cc1 | 99.1 |
| COc1cc(S(=O)(=O)c2ccncc2)ccc1NC(=O)C(C)(O)C(F)(F)F (stereo unspecified) | 220 to 222 |
| CC(C)(C)NC(=O)C(C)(C)C | 116 to 118 |
| CCOC(=O)c1cc(CC(C)(C)NC(=O)OC(C)(C)C)n(CCOC)n1 | 92 to 93 |
| c1ccc(-c2ccc3nncn3n2)nc1 | 191 to 192 |
| O[C@H](CCc1cccnc1)COc1ccc(-c2nnco2)cc1 | 130 to 133 |
| CC(C)(C)c1cc(C=C2OC(NC(=N)N)=NC2=O)cc(C(C)(C)C)c1O | 258 |
| O=C(O)C(=O)c1ccoc1 | 94.2 |
| CCC(CC)c1nc(CN(C)C(=O)N[C@H](C(=O)N[C@@H](Cc2ccccc2)C[C@H](O)[C@H](Cc2ccccc2)NC(=O)OCc2cncs2)C(C)C)cs1 | 64 to 66 |
| CCOC(=O)C=Cc1ccc(OC)cc1OC | 58 |
| CSc1sc(C(=O)N2CCCCCC2)c2c1-c1oncc1C(C)(C)C2 | 99 to 101 |
| COc1cc(C(=O)c2ccc(C(F)(F)F)cc2)cc([N+](=O)[O-])c1O | 172 |
| CC(C)NC(=O)C1(C(C)C)CCCC1C (stereo unspecified) | 90.5 to 91.5 |
| C[C@@H](O)[C@H](CN)C(=O)O | 120 to 123 |
| Nc1n[nH]c2cc(C(=O)C=NO)ccc12 | 199 to 201 |
| O=C(c1ccc(Br)cc1)C(Br)C(Br)c1cccc(Br)c1 (stereo unspecified) | 150 to 152 |
| O=C(NCP(=O)(O)c1ccccc1)c1ccccc1 | 158 to 160 |
| CC(=O)Nc1n[nH]c(C(C)(C)C)c1Br | 234 to 235 |
| CC(=O)Nc1cc(Br)ccc1Sc1ccc([N+](=O)[O-])cc1[N+](=O)[O-] | 194 to 196 |
| C[C@H](N)C(=O)NC(C)(Cc1ccc(F)cc1)c1ccc(F)cc1 (stereo partly specified) | 134 to 135 |

| Compound | melting point [°C] |
| --- | --- |
| CSc1ccc(CNC(=O)c2sc(NC(C)=O)nc2CCc2ccc(NC(=O)OC(C)(C)C)cc2)cc1 | 182 to 183 |
| CC1(C)CC(OC(=O)c2ccccc2)CC(C)(C)N1OC(=NC1CCCCC1)NC1CCCCC1 | 50 to 57 |
| CCC1(C)C(=O)c2c(Cl)cc(C)c(C)c2C1=O (stereo unspecified) | 97 |
| O=C1N[C@H]2OC=N[C@@]12c1ccccc1 | 159 to 160 |
| CC1CC2=CC(=O)CCC2C2C(F)CC3(C)C(=O)CCC3C12 (stereo unspecified) | 84.8 |
| NC(=O)[C@@H](CCC(F)(F)F)N(Cc1ccc(-c2ncon2)cc1F)S(=O)(=O)c1ccc(Cl)cc1 | 66 to 68 |
| COc1cc(C=CC(=O)Nc2cnc3ccc(C)cc3c2-c2ccccc2Br)cc(OC)c1OC(C)=O | 238 to 240 |
| Brc1cccc2nonc12 | 92 to 94 |
| CC(C)C(C)NC1=NS(=O)(=O)c2cc([N+](=O)[O-])ccc2N1 (stereo unspecified) | 308 to 311 |
| Cc1cc([N+](=O)[O-])c(O)c(Cl)c1C | 62 to 63 |
| CCCCCCS(=O)(=O)c1nn2c(=O)c(Cl)c(F)nc2s1 | 185 to 188 |
| O=[N+]([O-])c1cn(C2OC(CO)C(O)C2O)nn1 (stereo unspecified) | 172 to 174 |
| CCOc1ccc(OCCCc2cn(-c3ccc(C(F)(F)F)cn3)nc2OCC)c(CCC(=O)O)c1 | 104 to 105 |
| CCCCCCCCCCCCCCCCCCOc1ccc(N)cc1 | 95 to 97 |
| CC(C)Oc1ccc(C(=O)c2ccc([N+](=O)[O-])cc2)cc1 | 136 to 137 |
| CCCN(CCC)c1nc(C#N)c(C#N)nc1CC | 58 to 60 |
| CCOC(=O)C#CC(C)(C)OC(N)=O | 111 to 114 |
| COc1ccc2[nH]c(C(C)=O)cc2c1 | 164 to 167 |
| S=C=Nc1cccc2ccoc12 | 45 to 46 |
| CC(C)Sc1cc(O)c(N)c(C#N)c1 | 145 to 146 |
| COC(=O)c1sc(OC)c(C)c1O | 63 to 65 |
| CCCCCCCCCCCCc1cc(NC(=O)Nc2c(C(C)C)cccc2C(C)C)on1 | 112 to 114 |
| O=c1[nH]c2c(I)c(Br)c(Br)c(I)c2[nH]c1=O | > 350 |
| CCCCCCCCCCc1csc2c1S(=O)(=O)c1c(CCCCCCCCCC)csc1-2 | 58.7 to 60.3 |
| O=c1ccc2c(-n3cncn3)nccc2[nH]1 | > 300 |
| N#COc1ccc(C=CC(=O)c2ccc(OC#N)cc2)cc1 | 171 to 173 |
| CCCCCCCc1ccc(-c2ccc(C(=O)O)cc2)cc1 | 163 |

Second part, the compound after the results:

| melting point [°C] | Compound |
| --- | --- |
| 231 to 233 | CS(=O)(=O)c1ccc(-c2cnn(-c3ccc(F)cc3)c(=O)c2C2CCCCC2)cc1 |
| 160 to 161 | CCOC(=O)CC(=O)Nc1c(-c2ccccc2)nn2ccccc12 |
| 120 to 121 | Cc1c(Br)cccc1NCc1c(C(=O)O)sc2ccccc12 |
| 97 | COc1ccc(-c2nc(-c3ccc[nH]3)n(CCCBr)c2-c2ccc(OC)cc2)cc1 |
| 99 to 100 | CCSc1cc(C)nc(SCC)c1NC(=O)CCCCCCCSc1nc2cccc(C(F)(F)F)c2o1 |
| 150 | CN(Cc1ccc(NC(=O)c2coc3c2C(=O)CCC3)cc1)C(=O)OC(C)(C)C |
| 52 to 55 | Cc1ccc(C(=O)c2cccc(C(C)C#N)c2)cc1 (stereo unspecified) |
| > 200 | Cc1cc(Cc2ccccc2)c(NS(=O)(=O)Cc2ccccc2)c(=O)n1CC(=O)O |
| 126 to 129 | CCCc1c(O)ccc2c1OCCC2=O |
| 166 to 168 | CN1CCN(CCCn2c(NC(=O)c3ccc(Cl)c(Cl)c3)nc3ccccc32)CC1 |
| 244 to 245 | CC(C)(O)Cn1c(CO)nc2c(N)nc3cc(-c4ccccc4)cnc3c21 |
| 176 to 177 | COc1ccc(C(C#N)CNC(=O)C(N)=O)cc1OC1CCCC1 (stereo unspecified) |
| 110 to 115 | N#Cc1cnn(-c2ccccn2)c1SCc1ccccc1 |
| 153 to 155 | CC(C)(Cl)CC1NC(=O)c2ccccc21 (stereo unspecified) |
| 230 to 233 | Cc1c(C(=O)Nc2ccc(N3CCC(N(CCO)CCO)CC3)c(C#N)c2)cnn1-c1ccc(Cl)cc1 |
| 145 | Cn1cc(-c2ccccc2)c(C(=O)NCCNC(=O)OC(C)(C)C)n1 |
| 139 to 140 | COC(=O)c1cc(F)c(N2CCC(N)C2)nc1Nc1ccc(F)cc1F (stereo unspecified) |
| 198 to 200 | Cc1[nH]c(=O)n(C2CCCCC2)c1-c1ccc(OCCC(C)C)cc1 |
| 228 to 230 | O=C(O)Cc1cccc(NC(=O)NC2C(=O)N(CC(=O)N3CCCC3)c3ccccc3N(CC(=O)N3CCCC3)C2=O)c1 |
| 60 to 62 | COc1ccc2c(c1)Oc1c(ccc(OC)c1C(OC)OC)C2(C)C |
| 42 to 43 | Cc1ccccc1Sc1cccc(C=O)c1O |
| 144 to 147 | O=c1[nH]sc2nc(-c3ccccc3)nc(CCc3ccccc3)c12 |
| 151 | Cn1cc(O)c(=O)c2ccc(OCC(F)(F)F)cc21 |
| > 280 | O=c1[nH]c2cc(Cl)ccc2c(=O)c2sccc12 |
| 71 to 72 | CCOC(=O)N1CCC(c2nc(-c3ccc(-c4ccccc4)cc3)c[nH]2)CC1 |
| 163 to 164 | CS(=O)(=O)c1ccc(C2=C(c3ccc(C#N)cc3)CCC2)cc1 |

| melting point [°C] | Compound |
| --- | --- |
| 197 | CON=CC(C)(C)NC(=O)c1c(Cl)cccc1C(=O)Nc1ccc(OC(F)(F)F)cc1C |
| 92 to 93 | COc1nc2ccccc2cc1C=O |
| 115 | N#Cc1cnn(-c2ccc(OC(F)(F)F)cc2Cl)c1N |
| 158 to 160 | COc1ccc(-c2cccc3c2COC3=O)c2c1OCCO2 |
| 193 to 195 | CC(=CC(=O)O)c1ccc(-c2ccc(F)cc2F)cc1 |
| > 270 | Cc1nc2cc(Sc3cccc4cnccc34)c([N+](=O)[O-])cc2c(=O)[nH]1 |
| 264 to 268 | COc1ccc2c(c1)c1c3c(c(-c4c(Cl)cccc4OC)cc1n2CCO)C(=O)NC3=O |
| 125 to 126 | Cc1ccccc1-c1cccc(Nc2ccccc2)c1C#N |
| 80 to 84 | CN1CCN(C(=O)CC2(C)OCCc3c2[nH]c2ccccc32)CC1 (stereo unspecified) |
| 103 to 104 | Cc1ccc(C(=O)N2CCOCC2)c(Nc2ccc3cn[nH]c3c2)n1 |
| 84 to 86 | CC(=O)NC[C@H]1CN(c2ccc3c(c2)CS(=O)(=O)N3C)C(=O)O1 |
| 158 to 159 | Cc1nc(N2CCc3ccccc3CC2)c(C#N)c(=O)n1CC=C(F)F |
| 110 to 111 | CCC(O)(c1ccc(OCCCN2CCCCC2)cc1)c1ccccc1OC (stereo unspecified) |
| 67 to 68 | C[Si](C)(C)Sc1nnnn1-c1ccccc1 |
| 231 to 234 | CN=C(NC#N)N1CCc2nc(N)sc2C1 |
| 234 to 238 | COc1cc(-c2cccc(C=C3SC(N4CCOCC4)=NC3=O)c2)cc(C23CC4CC(CC(C4)C2)C3)c1 |
| 171 to 173 | CC(=O)C1C(=O)N(C(=O)Nc2ccccc2)c2ccccc21 (stereo unspecified) |
| 230 to 232 | COc1cc(Cc2ccc3nc(N)nc(N)c3c2)cc(OC)c1 |
| 151 to 152 | COc1ccc(C(=O)N2c3ccccc3C(N3CCCCc4ccccc43)=CC2C)cc1OC (stereo unspecified) |
| 114 to 118 | Cc1ccc(C(=O)N(C)C)cc1-c1nc(N(C)CCCN(C)C)nc2c1CNC(=O)N2c1c(F)cccc1F |
| 82 to 84 | CCOC(=O)C1CCc2cc3ccccc3n2C1=O (stereo unspecified) |
| 188 to 190 | C#CCOc1ccc(C(=O)C=Cc2ccc(C#N)cc2)c(O)c1 |
| 132 to 134 | Cc1ccc(N2CCSC2N)c([N+](=O)[O-])c1 (stereo unspecified) |
| 284 to 285 | O=C(O)c1ccc(-c2nc(-c3ccc(Cl)cc3)cs2)cc1 |
| 79 to 83 | COc1ccccc1N1CCN(CCCNC(=O)c2cccc3c2OC(C2CCCCC2)CC3)CC1 (stereo unspecified) |
| 201 to 202 | N#CC1c2ccccc2C(Nc2ccc(Cl)cc2)=NN1C(=O)c1ccccc1 (stereo unspecified) |

— a melting point compilation (Tetko et al.; mined from patent text by program, amines drawn as free bases though some values may be those of a salt)
